The target in the assay is histamine receptor H1 (Homo sapiens, UniProt P35367). In words: Inhibition of binding of a ligand (Pyrilamine) to histamine receptor H1. The note with it: as compared to the unsubstituted vinyl counterpart (106 vs compound 415; 85 vs compound 95). The procedure: The number and extent of undesirable side effects increases with increasing affinity for the H1 receptor Thus, in one aspect, compounds of the formulae herein display reduced, low or no affinity to histamine receptor H1. […] Inhibition of binding of a ligand to H1 for all variations detailed herein is determined by a suitable assay known in the art such as the assay described herein. […] In one variation, compounds of the formulae herein inhibit binding of a ligand to H1 by between about 50% to about 80%. […] In one variation, compounds of the formulae herein inhibit binding of Pyrilamine to H1 as determined in the assay described herein. In a further variation, percent inhibition of binding to H1 is measured by assays detailed herein.
histamine receptor H1, sequence (P35367 whole entry): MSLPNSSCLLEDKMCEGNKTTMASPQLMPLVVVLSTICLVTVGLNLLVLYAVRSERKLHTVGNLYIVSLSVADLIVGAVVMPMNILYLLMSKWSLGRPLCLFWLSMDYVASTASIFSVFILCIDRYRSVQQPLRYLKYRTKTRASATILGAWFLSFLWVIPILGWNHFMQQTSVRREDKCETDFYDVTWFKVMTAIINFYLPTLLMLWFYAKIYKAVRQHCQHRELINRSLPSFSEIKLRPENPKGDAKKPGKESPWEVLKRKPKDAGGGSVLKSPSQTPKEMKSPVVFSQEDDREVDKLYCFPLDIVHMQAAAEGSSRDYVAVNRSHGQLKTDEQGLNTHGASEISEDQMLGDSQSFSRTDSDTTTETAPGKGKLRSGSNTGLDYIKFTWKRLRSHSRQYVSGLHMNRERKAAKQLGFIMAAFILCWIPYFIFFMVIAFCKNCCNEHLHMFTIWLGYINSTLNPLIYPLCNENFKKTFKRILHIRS
The binding properties of compounds disclosed herein to a panel of aminergic G protein-coupled receptors including adrenergic receptors, dopamine receptors, serotonin receptors, histamine receptors and an imidazoline receptor may be determined. Binding properties may be assessed by methods known in the art, such as competitive binding assays. In one variation, compounds are assessed by the binding assays detailed herein. […]
In one aspect, DDT compounds display low affinity to histamine receptor H1. […] Inhibition of binding of a ligand to H1 for all variations detailed herein is determined by a suitable assay known in the art such as the assay described herein. […]

With `C/C(=C\n1c2c(c3cc(Cl)ccc31)CN(C)CC2)c1ccccc1` [compound 106, (E)-8-chloro-2,3,4,5-tetrahydro-2-methyl-5-(2-phenylprop-1-enyl)-1H-pyrido[4,3-b]indole], the “binding affinity to H1” value was “lower binding affinity to H1”.

The values above are taken from US8906925B2, “Pyrido[4,3-B]indoles containing rigid moieties” (Medivation Technologies, Inc., priority 2008, dated 2014).
